{"source": "patent US20230121611A1", "about": "“Monohydrate Salt of Denatonium Acetate” (priority 2021, published 2023)", "key": {"[1]": {"experiment": "Gravimetric Vapor Sorption (GVS) experiments", "format": "physicochemical", "procedure": "Several Gravimetric Vapor Sorption (GVS) experiments were carried out to investigate the behavior of DAM over a range of different relative humidity levels. […] This experiment used a similar method to GVS 1 without the steps involving 90% RH where the large mass changes were observed and equilibrium was not reached. […] Most of the mass change (1.3-1.4% increase) occurred between 0-10% RH."}, "[2]": {"experiment": "Storage under stress conditions (temperature / relative humidity)", "format": "physicochemical", "details": "for UPLC purity after storage: input purity 99.5%", "source_text": "It also lost mass when taken to relative humidity levels of less than 10%.\nIt also loses mass when taken to relative humidity levels of less than 10%.\n(§1) It was then removed from the instrument and a portion immediately analyzed by XRPD."}, "[3]": {"experiment": "Form stability of further XRPD patterns on storage or standing (reanalysis by XRPD)", "format": "physicochemical", "details": "for XRPD form after standing on disc for 4 hours / XRPD form after standing overnight on disc: ambient lab conditions; for XRPD form after standing on disc for 4 hours: 4 hours on XRPD disc; for XRPD form after standing overnight on disc: room temperature", "source_text": "as §1\nThe frozen sample was lyophilized on the freeze dryer until all the solvent was removed. […] This was designated as Pattern 2.\nA summary of the characterization data for the samples of Pattern 5 can be found in Table 9."}, "[4]": {"format": "physicochemical", "procedure": "Next, methyl isobutyl ketone was added and then water. In some embodiments, a lower alkyl isobutyl ketone is used in place of methyl isobutyl ketone. In some embodiments, the lower alkyl is a C1-3 alkyl. In some embodiments, the lower alkyl is methyl or ethyl. The temperature was lowered to <10° C. The remaining solid was isolated and washed with methyl isobutyl ketone to produce the final DAM (denatonium acetate monohydrate)."}}, "note": "Entries after “also recorded” stand apart in the source; their conditions may differ."}
{"smiles": "CC(=O)[O-].CC[N+](CC)(CC(=O)Nc1c(C)cccc1C)Cc1ccccc1", "note": "[DAM, denatonium acetate monohydrate]", "values": [{"measurement": "mass change", "setting": "[1]; GVS 2, between 0-10% RH", "value": 1.4, "unit": "%"}, {"measurement": "mass change", "setting": "[1]; GVS 3, between 0-10% RH", "value": "1.3-1.4%"}, {"measurement": "sample appearance after GVS", "setting": "[1]; after GVS 1 (40-90-0-90-0-40)", "value": "sorption cycle. Sample had formed a solid mass with powdery"}, {"measurement": "sample appearance after GVS", "setting": "[1]; after GVS 2 (40-80-0-80-0-40), acetate monohydrate", "value": "remained as a free-flowing powder; also recorded: Sample remained free flowing solid"}, {"measurement": "sample appearance after GVS", "setting": "[1]; after GVS 3 (40-0-80-0-80-0-40), acetate monohydrate", "value": "remained as a free-flowing powder; also recorded: Sample remained free flowing solid"}, {"measurement": "XRPD post GVS", "setting": "[1]; post GVS 1, 2, 3", "value": "Shows no change in form by XRPD post GVS 1, 2, 3"}, {"measurement": "XRPD post GVS", "setting": "[1]; post GVS 2", "value": "consistent with Pattern 1"}, {"measurement": "XRPD post GVS", "setting": "[1]; post GVS 3", "value": "consistent with Pattern 1"}, {"measurement": "hygroscopicity", "setting": "[1]; relative humidity levels above 80%, acetate monohydrate", "value": "ED21356-001-001-00 is very hygroscopic especially at levels"}, {"measurement": "mass behaviour at low humidity", "setting": "[1]; relative humidity levels of less than 10%, acetate monohydrate", "value": "lost mass; also recorded: loses mass"}, {"measurement": "XRPD form after storage at 0% RH", "setting": "[2]; 0% RH, open vial in GVS instrument, 2 days, acetate monohydrate", "value": "converted to Pattern 5; also recorded: consistent with Pattern 5; also recorded: change in form to Pattern 5"}, {"measurement": "observation after storage", "setting": "[2]; 25° C., 96% RH, 5 days, acetate monohydrate", "value": "deliquesce; also recorded: Sample had deliquesced"}, {"measurement": "XRPD after storage", "setting": "[2]; 25° C., 96% RH, 7 days", "value": "Amorphous"}, {"measurement": "observation after storage", "setting": "[2]; 25° C., 96% RH, 7 days", "value": "deliquesced"}, {"measurement": "UPLC purity after storage", "setting": "[2]; 25° C., 96% RH, 7 days", "value": "UPLC purity 98.9%"}, {"measurement": "XRPD after storage", "setting": "[2]; 40° C., 75% RH, 7 days", "value": "Shows no change in form by XRPD after 7 days"}, {"measurement": "UPLC purity after storage", "setting": "[2]; 40° C., 75% RH, 7 days", "value": "UPLC purity 99.4%"}, {"measurement": "observation after storage", "setting": "[2]; 40° C., 75% RH, after 5 and 7 days", "value": "Remained a solid after 5 and 7 days."}]}
{"smiles": "CC(=O)[O-].CC[N+](CC)(CC(=O)Nc1c(C)cccc1C)Cc1ccccc1.O", "note": "[DAM Pattern 5]", "values": [{"measurement": "XRPD form after standing on disc for 4 hours", "setting": "[3]", "value": "Conversion to Pattern 1 by XRPD"}, {"measurement": "XRPD form after standing on disc for 4 hours", "setting": "[3]; listed as Pattern 5", "value": "readily convert to Pattern 1; also recorded: conversion to Pattern 1; also recorded: converted to Pattern 1; also recorded: reverted to Pattern 1"}, {"measurement": "stability of the pattern", "setting": "[3]; ambient laboratory conditions", "value": "metastable"}, {"measurement": "XRPD form after storage in closed vial", "setting": "[3]; 6 weeks, listed as Pattern 5", "value": "converted to Pattern 1"}, {"measurement": "XRPD form after standing overnight on disc", "setting": "[3]", "value": "Conversion to Pattern 1 by XRPD"}, {"measurement": "XRPD form after standing overnight on disc", "setting": "[3]; listed as Pattern 5", "value": "convert to Pattern 1; also recorded: reverted to Pattern 1"}, {"measurement": "XRPD form under ambient laboratory conditions", "setting": "[3]; within a few hours", "value": "converts to Pattern 1"}]}
{"smiles": "CC(=O)[O-].CC[N+](CC)(CC(=O)Nc1c(C)cccc1C)Cc1ccccc1", "note": "[DAA, Denatonium Acetate, anhydrous]", "values": [{"measurement": "degradation products", "setting": "[4]", "value": "either (A) lidocaine and benzyl acetate or it degraded to (B) 2-(diethylamino)-3-phenyl-N-(2,6-dimethylphenylpropionamide"}]}
{"smiles": "CC(=O)[O-].CC[N+](CC)(CC(=O)Nc1c(C)cccc1C)Cc1ccccc1.O", "note": "[DAM Pattern 4]", "values": [{"measurement": "XRPD form after storage in closed vial", "setting": "[3]; 6 weeks", "value": "Conversion to Pattern 1 by XRPD"}, {"measurement": "XRPD form after storage in closed vial", "setting": "[3]; 6 weeks, listed as Pattern 4", "value": "conversion to Pattern 1"}]}
{"smiles": "CC(=O)[O-].CC[N+](CC)(CC(=O)Nc1c(C)cccc1C)Cc1ccccc1.O", "note": "[DAM Pattern 2]", "values": [{"measurement": "XRPD form after storage in closed vial", "setting": "[3]; 7 weeks", "value": "Conversion to Pattern 1 by XRPD"}, {"measurement": "XRPD form after storage in closed vial", "setting": "[3]; 7 weeks, listed as Pattern 2", "value": "converted to Pattern 1; also recorded: consistent with Pattern 1"}]}
